The values that follow come from patent US20100004156A1, “Small Compounds That Correct Protein Misfolding and Uses Thereof” (priority 2005, published 2010).

Where a SMILES comes first, the peptide text is derived from it. The star is where a group is joined. Cbz = O=C(OCc1ccccc1)*

Assay [1] relates to P23H opsin. The following applies: previous studies, Noorwez et al. J Biol Chem 2003; cited from earlier work.
Assay [2] relates to mutant P23H opsin. Put plainly: Recovery of correctly folded P23H rhodopsin from tetracycline-inducible HEK293 cells (immunoaffinity purification, absorbance at 500 nm). Particulars: for recovery of folded rhodopsins: in the presence of 11-cis-retinal, statement covers the rhodopsins of Table 1 (P23H and WT). The format is cell-based. The method, then:
(§1) Mutant P23H and wild-type opsins were expressed separately in tetracycline-inducible stable HEK293 cell lines in the presence of 11-cis retinal and various inhibitors. At forty-eight hours, the folded proteins were immununoaffinity purified and quantitated by UV-visible spectroscopy. The total amount of opsin protein was assayed at 280 nm. The amount of rhodopsin present in a biochemically functional conformation was assayed at 500 nm. Immunofluorescence microscopy was also performed to determine the cellular location of the proteins.
(§2) Stable wild-type and P23H opsin expressing HEK293 cell lines were generated in the Flp-In T-Rex system (Invitrogen). The BEK293 cells were grown in DMEM high glucose media supplemented with 10% fetal bovine serum, antibiotic-antimycotic solution, 5 μg/ml blasticidin and hygromycin at 37° C. in the presence of 8% CO2.
(§3) The opsin expressing HEK293 cell lines were allowed to reach confluence and were induced with 1 μg/ml tetracycline after a change of media. 10 μM 11-cis retinal was immediately added after induction under a red light, and inhibitors were added concurrently at the concentrations shown in Table 2 (below).
The plates were incubated for forty-eight hours. 10 uM of retinal was provided twenty-four hours after the first application, under red light.
Forty-eight hours after induction and inhibitor administration the HEK293 cells were harvested and rhodopsin was purified essentially as described in Noorwez et. al. (J Biol. Chem. 2004 Apr. 16; 279(16):16278-84). Spectrophotometric scans were taken in a Varian Cary 50 spectrophotometer.

In assay [3] the test system is wild-type opsin. Briefly: Recovery of wild-type rhodopsin from tetracycline-inducible HEK293 cells (immunoaffinity purification, absorbance at 500 nm). The format is cell-based. Particulars: 11-cis-retinal alone added to media of cells expressing wild-type opsin. Here is the method:
as §1, §2, §3
The plates were incubated for forty-eight hours. 10 uM of retinal was provided twenty-four hours after the first application, under red light. […]

Consider 7-ring locked isomer of 11-cis-retinal, for which the “in vivo folding and stabilization of P23H opsin” value in assay [1] was “promotes the in vivo folding and stabilization”. Consider `Cn1cnc(N)c2ncnc1-2` [3-methyladenine], for which, in assay [2], the “recovery of folded rhodopsins” value is given as “increased the recovery”. Turning to `CC1=C(/C=C/C(C)=C\C=C\C(C)=C\C=O)C(C)(C)CCC1` [9-cis-1-retinal], the “in vivo folding and stabilization of P23H opsin” value in assay [1] was “promotes the in vivo folding and stabilization”.

On to `CC1=C(/C=C/C(C)=C/C=C/C(C)=C/C=O)C(C)(C)CCC1` [11-cis-retinal], for which the “in vivo folding and stabilization of P23H opsin” value in assay [1] is “promotes the in vivo folding and stabilization”. For the same compound, the “effect on rhodopsin yield” value in assay [3] is “no effect”. Besides, the “increase in rhodopsin yield” value in assay [2] (11-cis-retinal alone added to culture medium of cells expressing the P23H mutant) is listed as 5-6 fold.

`Cl.N` [Ammonium chloride]: in assay [2], the “recovery of folded rhodopsins” value is listed as “increased the recovery”. Take `C[C@H]1CCC/C=C/[C@@H]2C[C@H](O)C[C@H]2[C@H](O)/C=C/C(=O)O1` [Brefeldin A]: the “increase in the yield of P23H rhodopsin” value in assay [2] (HEK293 cells, inhibitor added at induction with 11-cis-retinal, FIG. 4A) came out at 2 fold. In addition, the “recovery of folded rhodopsins” value in assay [2] was “increased the recovery”. Take `O[C@H]1[C@H](O)[C@@H](O)CN2CC[C@H](O)[C@H]12` [Castanospermine]: the “recovery of folded rhodopsins” value in assay [2] was “increased the recovery”. Same read-out and setting: the value for `CC(C)C[C@@H](C=O)NC(=O)[C@H](CC(C)C)NC(=O)[C@H](CC(C)C)NC(=O)OCc1ccccc1` [MG132, N-carbobenzoyl-Leu-Leu-Leu-CHO] (Cbz-Leu-Leu-Leu-aldehyde) was “increased the recovery”.
